Experimental data as given in patent US20230357064A1, “ENZYME BOOSTER TECHNOLOGY FOR ADVANCED DECONTAMINATION OF PETROLEUM HYDROCARBONS” (priority 2022, published 2023).
In brackets after ≈: the same amount, converted by molar mass.

Assay: physchem
Conditions: for solubility: 15 °C, aqueous buffer
Experimental: It is very important to control the freely dissolved PAH concentration and keep it unchanged throughout the experiment by equilibrium partitioning from the silicone. […] During the loading of PAHs, individual PAHs were dissolved in methanol (loading solvent) to saturation level. To create the PAHs mixture, the concentration in the loading solution was calculated using partitioning coefficients for each PAH from Gilbert et. al. (2015).^39 Then, cleaned and dried O-rings were added to 50 mL volumes of loading solution kept at 15±1° C. A criterion for successful application of the passive dosing system was ensuring the mass of PAHs dissolved into methanol was much greater than that partitioned into the silicon O-ring which in turn was greater than that partitioned into the MSM^37. After 24, 72 and 128 h, O-ring was removed from each loading batch, and they were transferred into MSM to measure O-ring (Crest) and freely dissolved concentration of each PAH (Cfree) at 0.33, 0.66, 1.33, 2.66, 5.33, 12, 24,48, and 72 h. The partition coefficient between different phases (KMethanol:Oring and KOring:MSM) were obtained using the measured Ctest,initial and Cfree, initial. The obtained partitioning coefficient (KOring:MSM) was applied to calculate the required O-ring volume to avoid depletion (<5%) using the following Equation: […]
With a 5 mL MSM and partitioning coefficients from Table 10, the O-ring volume needed for each PAH and PAH mixture were determined. The initial concentrations of freely dissolved PAHs (Cfree initial) and O-ring concentrations (Ctest) in medium samples were calculated via the approach published by Butler et. al (2013).^37 Finally, for the determination of the losses, freely dissolved concentrations of PAHs were directly measured in medium samples to compare with calculated Cfree initial.
Two controls were included to study biodegradation versus dissolved concentrations. The first control contained 5 mL of strain inoculating suspension in passive doing vials with O-rings to account for losses through volatilization. The second control contained 5 mL of MSM without any strain in passive dosing vials in the presence of O-ring loaded with PAHs to account for losses through […].

c1ccc2c(c1)ccc1ccccc12 [Phenanthrene]
Cfree (dissolved concentration measured in MSM): 0.91 mg/L | Cfree initial (freely dissolved concentration): 1.01 mg/L | Ctest initial (O-ring concentration): 48.6 mg/L | losses through volatilization: 0% | solubility: 1.04 µg/mL (≈ 5.84 µM)

c1ccc2ccccc2c1 [Naphthalene]
Cfree (dissolved concentration measured in MSM): 17.73 mg/L | Cfree initial (freely dissolved concentration): 18.31 mg/L | Ctest initial (O-ring concentration): 97.8 mg/L | losses through volatilization: 19% | time after which water concentration decreased due to volatility: about 4 h | solubility: 20.5 µg/mL (≈ 160 µM)

c1ccc2cc3ccccc3cc2c1 [Anthracene]
solubility: 3.11 µg/mL (≈ 17.4 µM) | Cfree (dissolved concentration measured in MSM) (MSM): 2.66 mg/L | Cfree initial (freely dissolved concentration) (MSM): 2.98 mg/L | losses through volatilization (control 1, passive dosing vials): 4% | Ctest initial (O-ring concentration) (silicone O-ring): 94.1 mg/L
